Assay results reported in PMC9319634, “Antibacterial Peptide NP-6 Affects Staphylococcus aureus by Multiple Modes of Action” (International Journal of Molecular Sciences, 2022).
Peptide text beside a SMILES is read from it.

How the values were obtained:
mouse red blood cells = experiment: Hemolysis assay; format: cell-based; settings: 512 µg/mL (1MIC); mouse red blood cells in PBS 0.01 M pH 7.4, 37 °C, 1 h; absorbance 595 nm; 1% Triton X-100 = 100%; mean ± SD, n = 3
Protocol: The hemolytic activity of the peptide was evaluated according to Tang et al. with minor modifications. To prepare the red blood cell solution, 1.0 mL of fresh mouse red blood cells was centrifuged for 5 min at 1000× g, and the precipitates were resuspended in 10 mL of PBS (0.01 M, pH 7.4). A total of 50 µL of serial dilutions of peptides (2048, 1024, 512, 256, 128, 64, 32, 16, 8, and 4 µg/mL) were prepared in a 96-well plate by dissolving NP-6 and Nisin A in PBS (0.01 M, pH 7.4). Then, 50 µL of freshly prepared mouse red blood cell solution was added and incubated at 37 °C for 1 h. A total of 50 µL of PBS buffer only and 50 µL of Triton X-100 1% (w/v) were mixed with 50 µL of mouse red blood cell solution as negative and positive controls, respectively. After 1 h of incubation, all the samples were centrifuged at 1000× g for 5 min. The supernatant was collected, and the absorbance was at 595 nm with a UV–vis instrument at 25 °C. The percent hemolysis was calculated as the following equation:(1) %hemolysis=absorbancesample−absorbancenegative/absorbancepositive−absorbancenegative×100
Mouse red blood cells that were suspended in PBS and 1% Triton X-100 represented zero hemolysis and 100% hemolysis, respectively.

RAW 264.7 cells = experiment: CCK-8 cytotoxicity assay; format: cell-based; settings: CCK-8, 48 h incubation, absorbance 450 nm, mean, n = 3
Protocol: RAW 264.7 cells were purchased from the National Collection of Authenticated Cell Cultures (Shanghai, China). The cells were cultured in DMEM containing 10% FBS at 37 °C in a 5% CO2 incubator at constant temperature.
The Cell Counting Kit-8 (CCK-8) assay was conducted to measure the cytotoxicity of the peptides towards RAW 264.7 cells according to Deng et al.. The cells were incubated in Roswell Park Memorial Institute (RPMI)-1640 medium at 37 °C in a humidified atmosphere with 5% CO2. Then, they were added to a 96-well plate (3 × 10^3 cells/well) to adhere for 18 h. A total of 100 µL of the samples with different concentrations (256, 512, 1024, and 2048 µg/mL) diluted by H2O were added and incubated for another 48 h, after which the medium was disposed. A total of 100 µL of the CCK-8 test solution was added and incubated for 2 h at 37 °C. The absorbance values of the mixture at 450 nm were determined. The survival rate of cells was calculated according to the following formula:(2) Survival rate (%)=absorbancesample−absorbanceblank/absorbancecontrol−absorbanceblank×100

[1] = Serum stability (antimicrobial activity after incubation in fetal bovine serum, plate count); format: in vitro ADME; settings: peptide 1.0 mg/mL in 50% fetal bovine serum, 37 °C, 0, 3 and 6 h; remaining antimicrobial activity by plate count (CFU); repeated three times
Protocol: The serum stability assay was conducted to evaluate the effect of serum on the antimicrobial activity of NP-6 using a method that was reported in a previous study. Peptide (1.0 mg/mL) was added to 50% fetal bovine serum and incubated at 37 °C for 0, 3, and 6 h, respectively. The cells that were incubated with PBS, NP-6, and serum were conducted as a blank and a control. The antimicrobial activity of NP-6 was measured using the plate count method. These assays were repeated three times independently. The inhibition rate of samples was calculated according to the following formula:(3) Inhibition rate (%)=Nblank−Nsample/Nblank×100 where Nblank is the colony forming units (CFU) of cells that were incubated with PBS and Nsample is the CFU of cells that were incubated with NP-6, NP-6+ serum, and serum, respectively. The inhibition rate of NP-6+ serum is expressed as the relative value to NP-6.

SMILES: CC[C@H](C)[C@H](NC(=O)CNC(=O)[C@@H](NC(=O)[C@H](CCCCN)NC(=O)[C@@H](NC(=O)[C@H](CCCCN)NC(=O)[C@H](CCCCN)NC(=O)[C@H](CC(=O)O)NC(=O)CNC(=O)[C@H](C)N)[C@@H](C)CC)[C@@H](C)CC)C(=O)N[C@@H](CC(N)=O)C(=O)NCC(=O)N[C@@H](Cc1ccccc1)C(=O)NCC(=O)N[C@@H](CCCNC(=N)N)C(=O)N[C@H](C(=O)NCC(=O)N[C@@H](CCCNC(=N)N)C(=O)N[C@@H](CC(C)C)C(=O)O)[C@@H](C)CC [NP-6] (H-AGDKKIKIGINGFGRIGRL-OH)
- hemolysis activity (mouse red blood cells): 2.39 ± 0.13%
- survival rate of RAW264.7 cells (RAW 264.7 cells; 1 × MIC (512 µg/mL)): 72.56%
- survival rate of RAW264.7 cells (RAW 264.7 cells; 2 × MIC (1024 µg/mL)): 20.26%
- inhibition rate of NP-6 + serum samples relative to NP-6 [1]: exceeded 80%
